Results taken from BindingDB's records for PubMed 39149111 (Cairo University).

Target: Prostaglandin G/H synthase 2 (Ovis aries) (UniProt P79208)
Test: Inhibition of ovine COX-2 using arachidonic acid as substrate preincubated for 5 mins followed by substrate addition

Sequence of Prostaglandin G/H synthase 2 (Ovis aries) (P79208 whole entry, looked up): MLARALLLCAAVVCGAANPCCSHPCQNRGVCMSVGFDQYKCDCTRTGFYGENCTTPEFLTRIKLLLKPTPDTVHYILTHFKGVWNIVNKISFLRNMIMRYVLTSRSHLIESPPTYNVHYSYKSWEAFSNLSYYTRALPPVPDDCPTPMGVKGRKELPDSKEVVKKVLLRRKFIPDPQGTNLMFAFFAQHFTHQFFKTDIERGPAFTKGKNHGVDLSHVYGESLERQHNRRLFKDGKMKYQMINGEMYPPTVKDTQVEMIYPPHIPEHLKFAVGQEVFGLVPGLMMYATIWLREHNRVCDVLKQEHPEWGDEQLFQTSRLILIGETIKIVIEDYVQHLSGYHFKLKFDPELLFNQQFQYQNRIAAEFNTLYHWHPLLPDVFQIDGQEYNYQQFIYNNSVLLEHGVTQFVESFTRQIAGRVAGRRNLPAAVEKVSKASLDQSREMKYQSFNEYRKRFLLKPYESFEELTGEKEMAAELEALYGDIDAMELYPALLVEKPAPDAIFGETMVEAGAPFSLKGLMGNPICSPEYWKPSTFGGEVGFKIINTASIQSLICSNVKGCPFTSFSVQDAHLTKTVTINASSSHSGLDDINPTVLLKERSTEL

## O=C1NNC(N=CCc2ccc([N+](=O)[O-])cc2)C1=NNc1ccc(-c2nc3ccccc3o2)cc1 (stereo unspecified)
  IC50: 0.56 µM
